For 19 compounds, IC50 results are on record in EP4707277A1, “NOVEL HETEROCYCLIC AMINE DERIVATIVES AND PHARMACEUTICAL COMPOSITION COMPRISING SAME” (Daewoong Pharmaceutical Co., Ltd., priority 2023, dated 2024).

Each structure is given as a SMILES string. Like-named read-outs stand apart in the source and are kept apart here.

The target of one assay is T1, BTK (Homo sapiens, UniProt Q06187).
T1 construct: purchased Signalchem B10-10H
Put plainly: Inhibitory activity against BTK, ADP-Glo Kinase system (Promega). The assay is classed as biochemical. In a few lines: (§1)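 IC50 values were fitted from kinase reactions run for 1 h at 30°C with either 1 mM ATP or ATP at Km (10 µM for BTK, 25 µM for ITK). Reactions used 0.2 µg/µl poly(Glu4,Tyr1), recombinant human enzyme (BTK 10 ng, ITK 4 ng per reaction) in Tris pH 7.5 Mn/Mg buffer with 1% DMSO. ADP formed was read by ADP-Glo luminescence.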

A further assay concerns the target T2, ITK (Homo sapiens, UniProt Q08881).
T2 construct: purchased Signalchem I13-11G-10
T2 sequence (Q08881 1-620): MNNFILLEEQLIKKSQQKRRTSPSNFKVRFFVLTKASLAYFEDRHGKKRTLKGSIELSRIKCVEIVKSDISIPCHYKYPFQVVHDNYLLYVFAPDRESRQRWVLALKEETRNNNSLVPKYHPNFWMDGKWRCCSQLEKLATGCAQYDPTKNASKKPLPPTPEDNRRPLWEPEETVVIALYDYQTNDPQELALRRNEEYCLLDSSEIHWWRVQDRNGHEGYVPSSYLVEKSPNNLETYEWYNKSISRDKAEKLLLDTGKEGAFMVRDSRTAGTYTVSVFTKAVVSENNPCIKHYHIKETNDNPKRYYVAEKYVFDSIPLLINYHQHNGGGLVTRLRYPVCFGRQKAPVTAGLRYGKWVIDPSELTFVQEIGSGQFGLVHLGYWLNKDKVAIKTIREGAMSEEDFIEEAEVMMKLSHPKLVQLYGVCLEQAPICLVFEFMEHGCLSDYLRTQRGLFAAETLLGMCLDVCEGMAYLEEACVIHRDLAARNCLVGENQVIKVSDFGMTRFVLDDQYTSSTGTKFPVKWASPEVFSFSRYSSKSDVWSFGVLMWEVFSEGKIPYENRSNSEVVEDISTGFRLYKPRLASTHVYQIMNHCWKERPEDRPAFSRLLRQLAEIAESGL
Put plainly: Inhibitory activity against ITK, ADP-Glo Kinase system (Promega). The class given is biochemical. An outline of the steps: as §1

The mark [1] stands for this setting: 1mM ATP, read-out: BTK IC50(nM) 1mM ATP.
Where [2] appears, read: 1mM ATP, read-out: ITK IC50(nM) 1mM ATP.
The mark [3] stands for this setting: Km ATP (BTK: 10 uM), read-out: BTK IC50(nM) Km ATP.
Where [4] appears, read: Km ATP (ITK: 25uM), read-out: ITK IC50(nM) Km ATP.

T1 sequence (Q06187 whole entry): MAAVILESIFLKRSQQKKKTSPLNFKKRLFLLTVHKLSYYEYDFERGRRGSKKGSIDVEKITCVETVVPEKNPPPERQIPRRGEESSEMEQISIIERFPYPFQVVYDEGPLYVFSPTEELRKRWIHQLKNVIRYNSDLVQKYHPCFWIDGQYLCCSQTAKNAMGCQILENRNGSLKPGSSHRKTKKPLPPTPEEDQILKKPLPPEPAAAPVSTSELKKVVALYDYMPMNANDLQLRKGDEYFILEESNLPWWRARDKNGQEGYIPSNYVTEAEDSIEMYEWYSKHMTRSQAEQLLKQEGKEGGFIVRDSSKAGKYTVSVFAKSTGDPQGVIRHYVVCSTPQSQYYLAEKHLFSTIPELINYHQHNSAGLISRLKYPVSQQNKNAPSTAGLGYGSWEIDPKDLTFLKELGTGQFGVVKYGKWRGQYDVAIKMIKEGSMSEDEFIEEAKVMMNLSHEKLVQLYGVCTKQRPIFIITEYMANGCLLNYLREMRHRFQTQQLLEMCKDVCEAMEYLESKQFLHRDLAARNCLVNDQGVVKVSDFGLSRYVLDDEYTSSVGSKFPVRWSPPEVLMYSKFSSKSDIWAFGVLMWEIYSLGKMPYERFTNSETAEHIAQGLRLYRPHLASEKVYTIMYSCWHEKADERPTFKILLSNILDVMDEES

For the compound `C=CC(=O)N1CC=C(c2nc(Nc3cc(C(F)(F)F)ccn3)cc3c2ccn3C(C)C)CC1` [Example 48, 1-(4-(1-isopropyl-6-((4-(trifluoromethyl)pyridin-2-yl)amino)-1H-pyrrolo[3,2-c]pyridin-4-yl)-3,6-dihydropyridin-1(2H)-yl)prop-2-en-1-one], the IC50 at BTK (setting [1]) and at ITK (setting [2]) was 20 to 100 nM throughout.
Regarding `C=CC(=O)N1CC(C)(Oc2nc(Nc3ncc(C)s3)cc3c2ccn3C2CCCC2)C1` [Example 165, 1-(3-((1-cyclopentyl-6-((5-methylthiazol-2-yl)amino)-1H-pyrrolo[3,2-c]pyridin-4-yl)oxy)-3-methylazetidin-1-yl)prop-2-en-1-one], the IC50 on BTK (setting [1]) and at ITK (setting [2]) was at most 20 nM in each case.
`C=CC(=O)N1CC[C@H](Oc2nc(Nc3ncc(C)s3)cc3c2ccn3CC2CCOCC2)C1` [Example 133, (S)-1-(3-((6-((5-methylthiazol-2-yl)amino)-1-((tetrahydro-2H-pyran-4-yl)methyl)-1H-pyrrolo[3,2-c]pyridin-4-yl)oxy)pyrrolidin-1-yl)prop-2-en-1-one]: the IC50 at BTK (setting [1]) and at ITK (setting [2]) was at most 20 nM throughout.
As to `C=CC(=O)N1CCC[C@H]1COc1nc(Nc2ncc(C)s2)cc2c1ccn2CC(C)C` [Example 85, (S)-1-(2-(((1-isobutyl-6-((5-methylthiazol-2-yl)amino)-1H-pyrrolo[3,2-c]pyridin-4-yl)oxy)methyl)pyrrolidin-1-yl)prop-2-en-1-one], the IC50 at BTK (setting [1]) is 20 to 100 nM; at ITK (setting [2]) it was above 500 nM.
On the same counts, the results for `CC#CC(=O)N1C[C@H](F)[C@H](Oc2nc(Nc3ncc(C)s3)cc3c2ccn3CC(C)C)C1` [Example 230, 1-((3S,4R)-3-fluoro-4-((1-isobutyl-6-((5-methylthiazol-2-yl)amino)-1H-pyrrolo[3,2-c]pyridin-4-yl)oxy)pyrrolidin-1-yl)but-2-yn-1-one] are above 500 nM and above 500 nM.
On the same counts, the results for `C=CC(=O)N1CC[C@@H]1COc1nc(Nc2ncc(C)s2)cc2c1ccn2CC(F)F` [Example 209, (R)-1-(2-(((1-(2,2-difluoroethyl)-6-((5-methylthiazol-2-yl)amino)-1H-pyrrolo[3,2-c]pyridin-4-yl)oxy)methyl)azetidin-1-yl)prop-2-en-1-one] are at most 20 nM and at most 20 nM.
On the same counts, the results for `C=CC(=O)N1CC[C@H](COc2nc(Nc3ncc(C)s3)cc3c2ccn3CC(C)C)C1` [Example 216, (S)-1-(3-(((1-isobutyl-6-((5-methylthiazol-2-yl)amino)-1H-pyrrolo[3,2-c]pyridin-4-yl)oxy)methyl)pyrrolidin-1-yl)prop-2-en-1-one] are 20 to 100 nM and 100 to 500 nM.
Regarding `C=CC(=O)N1CC=C(c2nc(Nc3ncc(C)s3)cc3c2ccn3C(C)C)CC1` [Example 2, 1-(4-(1-isopropyl-6-((5-methylthiazol-2-yl)amino)-1H-pyrrolo[3,2-c]pyridin-4-yl)-3,6-dihydropyridin-1(2H)-yl)prop-2-en-1-one], the IC50 was 20 to 100 nM at BTK (setting [1]), at most 20 nM on BTK (setting [3]), 20 to 100 nM on ITK (setting [2]) and at most 20 nM at ITK (setting [4]).
On to `C=CC(=O)Nc1cc(-c2nc(Nc3ncc(C)s3)cc3c2ccn3CCC(C)(C)C)c(F)cc1F` [Example 69, N-(5-(1-(3,3-dimethylbutyl)-6-((5-methylthiazol-2-yl)amino)-1H-pyrrolo[3,2-c]pyridin-4-yl)-2,4-difluorophenyl)acrylamide], for which the values for the IC50 on BTK (setting [1]) and at ITK (setting [2]) were 100 to 500 nM and 20 to 100 nM, respectively.
As for `C=CC(=O)N1CC(Oc2nc(Nc3ncc(C)s3)cc3c2ccn3C(C)C)C1` [Example 80, 1-(3-((1-isopropyl-6-((5-methylthiazol-2-yl)amino)-1H-pyrrolo[3,2-c]pyridin-4-yl)oxy)azetidin-1-yl)prop-2-en-1-one], the IC50 on BTK (setting [1]), at BTK (setting [3]), at ITK (setting [2]) and at ITK (setting [4]) was at most 20 nM each time.
Take `C=CC(=O)N1CC(C)(Oc2nc(Nc3ncc(C)s3)cc3c2ccn3CCC)C1` [Example 176, 1-(3-methyl-3-((6-((5-methylthiazol-2-yl)amino)-1-propyl-1H-pyrrolo[3,2-c]pyridin-4-yl)oxy)azetidin-1-yl)prop-2-en-1-one]: the IC50 on BTK (setting [1]) and on ITK (setting [2]) was at most 20 nM throughout.
As for `C=CC(=O)N1C2C=C(c3nc(Nc4ncc(C)s4)cc4c3ccn4CC3(C(F)(F)F)CC3)CC1CC2` (stereo not drawn) [Example 30, 1-(3-(6-((5-methylthiazol-2-yl)amino)-1-((1-(trifluoromethyl)cyclopropyl)methyl)-1H-pyrrolo[3,2-c]pyridin-4-yl)-8-azabicyclo[3.2.1]oct-2-en-8-yl)prop-2-en-1-one], the IC50 at BTK (setting [1]) and at ITK (setting [2]) was at most 20 nM in each case.
In the case of `C=CC(=O)N1CC[C@H](Oc2nc(Nc3cc(F)ccc3C)cc3c2ccn3C)C1` [Example 138, (S)-1-(3-((6-((5-fluoro-2-methylphenyl)amino)-1-methyl-1H-pyrrolo[3,2-c]pyridin-4-yl)oxy)pyrrolidin-1-yl)prop-2-en-1-one], the IC50 on BTK (setting [1]) and on ITK (setting [2]) was above 500 nM in each case.
With `C=CC(=O)N1CC=C(c2nc(Nc3ncc(C)s3)cc3c2ccn3C2CCCC2)CC1` [Example 5, 1-(4-(1-cyclopentyl-6-((5-methylthiazol-2-yl)amino)-1H-pyrrolo[3,2-c]pyridin-4-yl)-3,6-dihydropyridin-1(2H)-yl)prop-2-en-1-one], the IC50 at BTK (setting [3]) and on ITK (setting [4]) was at most 20 nM each time.
With `C=CC(=O)N1CC[C@H](Oc2nc(Nc3cc(C)[nH]n3)cc3c2ccn3C(C)C)C1` [Example 194, (S)-1-(3-((1-isopropyl-6-((5-methyl-1H-pyrazol-3-yl)amino)-1H-pyrrolo[3,2-c]pyridin-4-yl)oxy)pyrrolidin-1-yl)prop-2-en-1-one], the IC50 at BTK (setting [1]) is at most 20 nM; at ITK (setting [2]), 20 to 100 nM.
On the same counts, the results for `C=CC(=O)N1C[C@@H](F)[C@H](Oc2nc(Nc3ncc(C)s3)cc3c2ccn3CCC)C1` [Example 161, 1-((3R,4R)-3-fluoro-4-((6-((5-methylthiazol-2-yl)amino)-1-propyl-1H-pyrrolo[3,2-c]pyridin-4-yl)oxy)pyrrolidin-1-yl)prop-2-en-1-one] are at most 20 nM and at most 20 nM.
Turning to `C=CC(=O)Nc1cccc(-c2nc(Nc3ncc(C)s3)cc3c2ccn3C)c1F` [Example 51, N-(2-fluoro-3-(1-methyl-6-((5-methylthiazol-2-yl)amino)-1H-pyrrolo[3,2-c]pyridin-4-yl)phenyl)acrylamide], the IC50 at BTK (setting [3]) and at ITK (setting [4]) was at most 20 nM throughout.
On to `C=CC(=O)N1C[C@@H](Oc2nc(Nc3ncc(C)s3)cc3c2ccn3CC)C[C@@H]1C` [Example 186, 1-((2S,4S)-4-((1-ethyl-6-((5-methylthiazol-2-yl)amino)-1H-pyrrolo[3,2-c]pyridin-4-yl)oxy)-2-methylpyrrolidin-1-yl)prop-2-en-1-one], for which the IC50 at BTK (setting [1]) and at ITK (setting [2]) was at most 20 nM each time.
For the compound `C=CC(=O)N1C[C@H](F)[C@H](Oc2nc(Nc3ncc(C)s3)cc3c2ccn3CC2CCCC2)C1` [Example 132, 1-((3R,4S)-3-((1-(cyclopentylmethyl)-6-((5-methylthiazol-2-yl)amino)-1H-pyrrolo[3,2-c]pyridin-4-yl)oxy)-4-fluoropyrrolidin-1-yl)prop-2-en-1-one], the IC50 on BTK (setting [1]) and at ITK (setting [2]) was at most 20 nM in each case.
